Results on eleven molecules are retold here after publication PMC9585577, “Oxyresveratrol and Gnetol Glucuronide Metabolites: Chemical Production, Structural Identification, Metabolism by Human and Rat Liver Fractions, and In Vitro Anti-inflammatory Properties” (Journal of Agricultural and Food Chemistry, 2022).

Like-named read-outs stand apart in the source and are kept apart here.

One data set relates to rat liver S9 fractions. Kind of data set: In vitro glucuronidation by rat hepatic S9 fractions. In kind it is in vitro ADME. To be noted: for Vmax: rat S9 0.5 mg/mL. The procedure:
(§1) To study the production of glucuronide metabolites in vitro, human and rat S9 hepatic fractions were used. To ensure that the formation rates of metabolites were linear over the incubation time and at the concentration of protein, a series of preliminary experiments was performed to optimize the reactions.
(§2) Glucuronidation was studied by incubation of human or rat liver S9 fractions (0.5 mg/mL) with ORV or GN at different concentrations (0–3000 μM) in Tris–HCl buffer (50 mM, pH 7.4) in the presence of UDPGA (1 mM), alamethicin (25 μg/mL), and MgCl2 (5 mM). All samples were prepared in Eppendorf tubes in a final volume of 100 μL. After 15 min at 37 °C, 100 μL of methanol (100%) was incorporated to stop the reaction and precipitate the proteins. Finally, samples were centrifuged for 30 min at 14000g and 4 °C, and the supernatants were analyzed by UPLC–DAD–MS. Analysis were carried out using 1290 Infinity UPLC (Agilent Technologies, Courtaboeuf, France). The UPLC system was coupled to an Esquire 3000 Plus ion trap mass spectrometer using an ESI source (Bruker-Daltonics, Billerica, MA, U.S.A.). A total of 2 μL was injected into an Agilent SB-C18 column (1.8 μm, 2.1 × 100 mm). Samples were eluted with solvent A (H2O/0.1% formic acid) and solvent B (acetonitrile/0.1% formic acid) with the following gradient program: 10% B (from 0 to 1.7 min), 10–20% B (from 1.7 to 3.4 min), 20–30% B (from 3.4 to 5.1 min), 30% B (from 5.1 to 7.8 min), 30–35% B (from 7.8 to 9.5 min), 35–60% B (from 9.5 to 11.9 min), 60–100% B (from 11.9 to 15.3 min), 100% B (from 15.3 to 17 min), and 100–10% B (from 17 to 17.3 min). The flow rate was set at 0.4 mL/min, and the UV detector was set at wavelengths of 280 and 320 nm. Total ion chromatograms were obtained using negative mode with a range of m/z 130–1400. The parameters were as follows: capillary voltage, +4 kV; nebulizer pressure, 40 psi; dry gas, 10 L/min; and dry temperature, 365 °C. Data analysis was performed with Bruker Data Analysis 3.2 (Bruker-Daltonics, Billerica, MA, U.S.A.). Metabolite concentrations were quantified with the corresponding standard curve of ORV and GN glucuronides previously obtained by hemisynthesis.
(§3) The kinetic parameters, Km, Vmax, and Ki, were calculated using the GraphPad Prism software (version 6.01) (substrate inhibition as the kinetic model). The data obtained from MTT, NO, ROS, IL-1β, and TNF-α production were subjected to one-way analysis of variance (ANOVA). A comparison between LPS and the different tested concentrations of ORV, GN, and their glucuronide metabolites was performed using Dunnet’s test, and p < 0.05 was considered significant (GraphPad Prism software, version 6.01).
(§4) An important objective of this work was to study the in vitro metabolization of t-ORV and t-GN in rat and human species using S9 hepatic fractions. To this end, both stilbene monomers were incubated (37 °C, 15 min) at different concentrations (0–3000 μM) with human and rat S9 fractions (0.5 mg/mL) in the presence of UDPGA as a co-substrate of phase II enzymes. Then, samples were injected into a HPLC–DAD–MS system to identify and quantify the in vitro generated metabolites.

The subject of another data set is human liver S9 fractions. Kind of data set: In vitro glucuronidation by human hepatic S9 fractions. The note with it: for Vmax: human S9 0.5 mg/mL. In kind it is in vitro ADME. The procedure:
as §1, §2, §3, §4

For the next data set, the system named is macrophages. Also on record: method as in PMID 24257684. To be noted: macrophages ref 37; cited from earlier work.
For data set [1] the following is noted: in vivo, 400 umol/kg; cited from earlier work.
Data set [2] has as its system RAW 264.7 cells. To be noted: cited from earlier work.
In data set [3] the test system is NO production in LPS-stimulated RAW 264.7 cells. Kind of data set: NO measurement (Griess) in LPS-stimulated macrophages. In kind it is cell-based, murine. The note with it: for reduction of NO production: 50 μM, versus LPS alone. The procedure: (§5) RAW 264.7 cells were cultured in DMEM containing 10% FBS and maintained in a humidified incubator set at 37 °C with 5% CO2. For all following assays, cells were subcultured at a density of 40 000 cells per well in 96 well culture plates with 200 μL of the above-described culture medium. After 24 h, cells were incubated with ORV, GN, and their glucuronide metabolites (5–200 μM) in RPMI medium supplemented with glutamine (4 mM) in the presence or absence of LPS (0.1 μg/mL) (200 μL final volume per well). For MTT, NO, ROS, IL-1β, and TNF-α (n = 4), each experiment was performed in triplicate separately.
After 24 h of treatment of RAW 264.7 cells with ORV, GN, and their glucuronide metabolites, 70 μL of supernatant was mixed with 70 μL of Griess solution. After 15 min in darkness, the absorbance was measured at 550 nm using a microplate reader (FLUOstar Optima, BMG Labtech). A calibration curve of NO2 (0–100 μM) was used for quantification. Data were expressed as NO production (μM) compared to cells treated only with LPS (positive control).
For orientation: Nitrite, measured by Griess reagent, commonly stands in for NO production.

Data set [4] concerns RAW 264.7 cells. Kind of data set: MTT cell viability. In kind it is cell-based, murine. To be noted: 24 h, 5–200 μM tested. The procedure:
as §5
The MTT colorimetric assay was performed to assess the cell viability of cells after being treated with ORV, GN, and their glucuronide metabolites. After 24 h of treatment, RAW 264.7 cells were incubated with 0.5 mg/mL MTT during 3 h at 37 °C. The formazan crystals formed were dissolved with 100 μL of dimethyl sulfoxide (DMSO), and the plate was then incubated in the darkness for 30 min. Finally, the absorbance was measured at 595 nm using a microplate reader (FLUOstar Optima, BMG Labtech).

The conditions of data set [5]: cited from earlier work.
Data set [6] relates to TNF-α production in LPS-stimulated RAW 264.7 cells. Nature of the data set: TNF-α production (ELISA) in LPS-stimulated macrophages. The format is cell-based, murine. To be noted: 24 h. The procedure: as §5
At 24 h after seeding, RAW 264.7 cells were exposed to LPS (0.1 μg/mL) in the absence or presence of ORV, GN (10 and 50 μM), and their metabolites (50 and 200 μM). After 24 h of exposure, IL-1β and TNF-α concentrations were measured in culture media supernatants by ELISA sandwich assay following the instructions of the manufacturer.
(In general: An ELISA detects its analyte on a solid surface through an enzyme-linked reagent.)

For data set [7], the system named is ROS production in LPS-stimulated RAW 264.7 cells. Kind of data set: Intracellular ROS measurement (DCFH2-DA) in LPS-stimulated macrophages. In kind it is cell-based, murine. Here is the method:
as §5
Generation of intracellular ROS in cells was analyzed using the fluorometric probe DCFH2-DA. After 24 h of treatment with GN, ORV, and their glucuronide metabolites, cells were washed with phosphate-buffered saline (PBS) and then 150 μL of DCFH2-DA (10 μM) was added. After 30 min at 37 °C, the fluorescence intensity was quantified using a microplate reader (FLUOstar Optima, BMG Labtech) with a wavelength of excitation and emission of 485 and 520 nm, respectively. All experiments were performed in darkness. Results were expressed as ROS production (fluorescence intensity expressed as arbitrary units) compared to cells treated only with LPS (positive control).

In another data set the test system is HMC3 cells. Also on record: method as in PMID 32842681. The note with it: HMC3 cells ref 8; cited from earlier work.
A further data set concerns macrophage cell line. The note with it: 100 μM, 18 h incubation ref 6; cited from earlier work.
Setting [8] is: formation of the glucuronide from ORV.
[9] abbreviates: incubation of parent ORV or GN with human S9, UPLC–DAD–MS.
[10] abbreviates: formation of the glucuronide from GN.
Setting [11] is: between 25 and 50 μM (summary statement).

On to `O=C(O)[C@H]1O[C@@H](Oc2cc(O)ccc2/C=C\c2cc(O)cc(O)c2)[C@H](O)[C@@H](O)[C@@H]1O` (relative stereo) [c-ORV-2′G, cis-oxyresveratrol-2′-O-glucuronide], for which the “metabolite formed/detected in samples” value in the data set with rat liver S9 fractions and in the data set on human liver S9 fractions was “very low” throughout.

Take `O=C(O)[C@H]1O[C@@H](Oc2cc(O)cc(/C=C\c3ccc(O)cc3O)c2)[C@H](O)[C@@H](O)[C@@H]1O` (relative stereo) [c-ORV-3G, cis-oxyresveratrol-3-O-glucuronide]: the Vmax/Km with rat liver S9 fractions was 0.073 ± 0.044 μL min^–1 mg^–1 of protein; in the data set on human liver S9 fractions it was 0.159 ± 0.066 μL min^–1 mg^–1 of protein. In addition, the Vmax is 31.34 ± 5.6 nmol min^–1 mg^–1 of protein in the data set with rat liver S9 fractions (setting [8]) and 13.01 ± 1.04 nmol min^–1 mg^–1 of protein in the data set with human liver S9 fractions (setting [8]).

Turning to `O=C(O)C1OC(Oc2ccc(C=Cc3cc(O)cc(O)c3)c(O)c2)C(O)C(O)C1O` (stereo not shown) [ORV-4′G], the “metabolite formed/detected in samples” value in the data set on rat liver S9 fractions (incubation of parent ORV or GN with rat S9, UPLC–DAD–MS) was “neither the trans nor the cis form of ORV-4′G was detected”; with human liver S9 fractions (setting [9]), “neither the trans nor the cis form of ORV-4′G was detected”.

Consider `O=C(O)[C@H]1O[C@@H](Oc2cc(O)cc(/C=C/c3ccc(O)cc3)c2)[C@H](O)[C@@H](O)[C@@H]1O` [resveratrol-3-O-glucuronide], for which the cytotoxic effect entry with macrophages is recorded as “neither resveratrol-3-O-glucuronide nor resveratrol-4′-O-glucuronide had any cytotoxic effect”.

Turning to `O=C(O)[C@H]1O[C@@H](Oc2ccc(/C=C/c3cc(O)cc(O)c3)cc2)[C@H](O)[C@@H](O)[C@@H]1O` [resveratrol-4′-O-glucuronide], the cytotoxic effect result with macrophages is reported as “neither resveratrol-3-O-glucuronide nor resveratrol-4′-O-glucuronide had any cytotoxic effect”.

Take `O=C(O)[C@H]1O[C@@H](Oc2cccc(O)c2/C=C/c2cc(O)cc(O)c2)[C@H](O)[C@@H](O)[C@@H]1O` [t-GN-2′G, trans-gnetol-2′-O-glucuronide]: the results for the Vmax in the data set on rat liver S9 fractions (setting [10]) and in the data set on human liver S9 fractions (setting [10]) were 6.88 ± 0.86 nmol min^–1 mg^–1 of protein and 2.48 ± 0.31 nmol min^–1 mg^–1 of protein, respectively.

Regarding `O=C(O)[C@H]1O[C@@H](Oc2cc(O)cc(/C=C/c3c(O)cccc3O)c2)[C@H](O)[C@@H](O)[C@@H]1O` [t-GN-3G, trans-gnetol-3-O-glucuronide], the “metabolite formed/detected in samples” value in the data set on human liver S9 fractions (setting [9]) is recorded as “very low quantities”.

For `Oc1cc(O)cc(/C=C/c2ccc(O)cc2O)c1` [t-ORV, trans-2′,3,4′,5-tetrahydroxystilbene], the “ability to metabolize ORV into glucuronides, rats versus humans (sum of Vmax/Km)” value in the data set with rat liver S9 fractions (rat, human, pH 7.4) was greater than 2 fold. Further, the total bioavailability in data set [1] is recorded as 9.1-15.2%. In addition, in the data set with RAW 264.7 cells [2], the “IC30 for cell cytotoxicity” value is recorded as “higher than 50 μM”. Besides, in data set [3] (24 h, LPS 0.1 μg/mL), the “reduction of NO production” value turned out to be 27.1% and the “concentration from which NO production significantly reduced” value was no less than 10 µM. For the same molecule, the “decrease of NO production” value in data set [3] (setting [11]) was “more than 50%”. Further, in the data set with RAW 264.7 cells [4], the “concentration from which toxic (MTT)” value was no less than 100 µM. Besides, in data set [5] (rat, in vivo, po), the “AUC0–t” value is on record as 5133 μg h L^–1. The concentration in plasma in data set [5] (rats, oral administration of ORV 100 mg/kg ref 19) was roughly 10 µM. Further, the “reduction of TNF-α” value in data set [6] (50 μM) is reported as 30%. In addition, the “reduction of ROS” value in [7] (50 μM, 24 h, LPS 0.1 μg/mL) was “more than 70%”. In addition, the “decrease of ROS production” value in data set [7] (setting [11]) is on record as “more than 50%”. The “concentration from which toxic” value in the data set on HMC3 cells was no less than 80 µM. In the data set with macrophage cell line, the cytotoxic effect result is listed as “did not observe any cytotoxic effect”.

In the case of `O=C(O)[C@H]1O[C@@H](Oc2cc(O)ccc2/C=C/c2cc(O)cc(O)c2)[C@H](O)[C@@H](O)[C@@H]1O` [t-ORV-2′G, trans-oxyresveratrol-2′-O-glucuronide], the Vmax with rat liver S9 fractions (setting [8]) was 2.67 ± 0.32 nmol min^–1 mg^–1 of protein; with human liver S9 fractions (setting [8]), 12.93 ± 1.47 nmol min^–1 mg^–1 of protein. Further, in data set [3] (24 h, LPS 0.1 μg/mL), the “reduction of NO production” value worked out at 29%.

Consider `O=C(O)[C@H]1O[C@@H](Oc2cc(O)cc(/C=C/c3ccc(O)cc3O)c2)[C@H](O)[C@@H](O)[C@@H]1O` [t-ORV-3G, trans-oxyresveratrol-3-O-glucuronide], for which the Vmax in the data set on rat liver S9 fractions (setting [10]) is on record as 36 ± 3.57 nmol min^–1 mg^–1 of protein; in the data set with rat liver S9 fractions (setting [8]), 319.1 ± 69.77 nmol min^–1 mg^–1 of protein; in the data set with human liver S9 fractions (setting [8]), 11.41 ± 2.32 nmol min^–1 mg^–1 of protein. Further, the “reduction of NO production” value in data set [3] (24 h, LPS 0.1 μg/mL) was 31%. For the same molecule, the “reduction of TNF-α” value in data set [6] (200 μM) worked out at 70%. For the same molecule, the “reduction of ROS production, at the most” value in data set [7] (ORV metabolites, 50–200 μM tested, concentration not given, 24 h, LPS) is listed as “more than 80%”.

With `O=C(O)[C@H]1O[C@@H](Oc2ccc(/C=C/c3cc(O)cc(O)c3)c(O)c2)[C@H](O)[C@@H](O)[C@@H]1O` [t-ORV-4′G, trans-oxyresveratrol-4′-O-glucuronide], the “reduction of NO production” value in [3] (24 h, LPS 0.1 μg/mL) turned out to be 27.2%.
